Measured values: the kinase profiling compilation of Christmann-Franck et al. (2016)

Assays:
Assay in all cases: KINOMEscan competition binding
Conditions in all cases: compound 10.0 µM
[1] = system: EGFR (human), P00533 [752-759 del]
CAMK1 (human) = CAMK1 (human) (UniProt Q14012)
MAPK10 (human) = MAPK10 (human) (UniProt P53779)
CAMK2B (human) = CAMK2B (human) (UniProt Q13554)
FLT1 (human) = FLT1 (human) (UniProt P17948)
IRAK3 (human) = IRAK3 (human) (UniProt Q9Y616)
SRPK1 (human) = SRPK1 (human) (UniProt Q96SB4)
TYRO3 (human) = TYRO3 (human) (UniProt Q06418)
NEK5 (human) = NEK5 (human) (UniProt Q6P3R8)
MERTK (human) = MERTK (human) (UniProt Q12866)
NLK (human) = NLK (human) (UniProt Q9UBE8)
SGK110 (human) = SGK110 (human) (UniProt P0C264)
[2] = system: ABL1 (human), P00519 [T315I]
HCK (human) = HCK (human) (UniProt P08631)
ABL2 (human) = ABL2 (human) (UniProt P42684)
MAPK3 (human) = MAPK3 (human) (UniProt P27361)
MAP3K4 (human) = MAP3K4 (human) (UniProt Q9Y6R4)
FGR (human) = FGR (human) (UniProt P09769)
PRKACB (human) = PRKACB (human) (UniProt P22694)
ERBB2 (human) = ERBB2 (human) (UniProt P04626)
MAPKAPK2 (human) = MAPKAPK2 (human) (UniProt P49137)
PRKCH (human) = PRKCH (human) (UniProt P24723)
EPHB2 (human) = EPHB2 (human) (UniProt P29323)
ULK1 (human) = ULK1 (human) (UniProt O75385)
PTK2B (human) = PTK2B (human) (UniProt Q14289)
LIMK1 (human) = LIMK1 (human) (UniProt P53667)
MAP4K5 (human) = MAP4K5 (human) (UniProt Q9Y4K4)
ADCK4 (human) = ADCK4 (human) (UniProt Q96D53)
[3] = system: EGFR (human), P00533 [L861Q]
SYK (human) = SYK (human) (UniProt P43405)
MST1R (human) = MST1R (human) (UniProt Q04912)
ULK3 (human) = ULK3 (human) (UniProt Q6PHR2)
PRKCE (human) = PRKCE (human) (UniProt Q02156)
FES (human) = FES (human) (UniProt P07332)
CDK2 (human) = CDK2 (human) (UniProt P24941)
PIK3CA (human) = PIK3CA (human) (UniProt P42336)
CSF1R (human) = CSF1R (human) (UniProt P07333)
MAP3K10 (human) = MAP3K10 (human) (UniProt Q02779)
AKT1 (human) = AKT1 (human) (UniProt P31749)
STK32B (human) = STK32B (human) (UniProt Q9NY57)
NUAK2 (human) = NUAK2 (human) (UniProt Q9H093)
Sequence of NUAK2 (human) (Q9H093 whole entry, looked up): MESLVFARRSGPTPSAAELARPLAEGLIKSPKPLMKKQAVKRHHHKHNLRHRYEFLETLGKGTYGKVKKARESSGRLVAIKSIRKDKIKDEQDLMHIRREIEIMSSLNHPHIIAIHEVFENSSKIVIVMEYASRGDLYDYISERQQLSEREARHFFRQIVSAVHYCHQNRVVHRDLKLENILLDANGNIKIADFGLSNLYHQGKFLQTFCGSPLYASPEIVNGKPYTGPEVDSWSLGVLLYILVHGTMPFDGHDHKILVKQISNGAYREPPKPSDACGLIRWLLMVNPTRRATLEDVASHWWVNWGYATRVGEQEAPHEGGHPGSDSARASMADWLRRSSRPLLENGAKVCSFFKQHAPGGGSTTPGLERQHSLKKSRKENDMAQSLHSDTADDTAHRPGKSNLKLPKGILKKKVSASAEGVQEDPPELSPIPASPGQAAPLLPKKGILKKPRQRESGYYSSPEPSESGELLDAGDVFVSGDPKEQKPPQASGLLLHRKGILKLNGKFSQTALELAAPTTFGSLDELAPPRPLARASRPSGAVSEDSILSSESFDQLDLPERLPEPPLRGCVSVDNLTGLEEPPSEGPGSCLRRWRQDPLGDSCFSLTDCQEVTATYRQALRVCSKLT

Sequence of CAMK2B (human) (Q13554 whole entry, looked up): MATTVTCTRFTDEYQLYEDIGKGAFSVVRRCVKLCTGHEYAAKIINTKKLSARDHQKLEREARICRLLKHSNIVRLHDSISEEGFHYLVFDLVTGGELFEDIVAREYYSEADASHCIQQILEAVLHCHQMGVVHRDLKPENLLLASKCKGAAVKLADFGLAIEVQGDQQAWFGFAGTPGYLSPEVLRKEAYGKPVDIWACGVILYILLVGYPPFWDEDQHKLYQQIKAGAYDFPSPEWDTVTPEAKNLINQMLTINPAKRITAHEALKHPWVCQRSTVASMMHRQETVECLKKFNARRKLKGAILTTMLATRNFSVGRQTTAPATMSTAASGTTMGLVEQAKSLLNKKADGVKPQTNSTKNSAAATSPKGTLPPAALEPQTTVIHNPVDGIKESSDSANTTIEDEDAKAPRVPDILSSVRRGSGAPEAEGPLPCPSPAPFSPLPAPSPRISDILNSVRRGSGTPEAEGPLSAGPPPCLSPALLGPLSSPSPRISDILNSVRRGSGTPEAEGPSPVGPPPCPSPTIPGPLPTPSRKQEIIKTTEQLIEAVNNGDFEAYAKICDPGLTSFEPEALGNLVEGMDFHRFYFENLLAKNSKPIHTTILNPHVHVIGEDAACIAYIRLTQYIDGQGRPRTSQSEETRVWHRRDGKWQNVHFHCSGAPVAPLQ
Sequence of TYRO3 (human) (Q06418 whole entry, looked up): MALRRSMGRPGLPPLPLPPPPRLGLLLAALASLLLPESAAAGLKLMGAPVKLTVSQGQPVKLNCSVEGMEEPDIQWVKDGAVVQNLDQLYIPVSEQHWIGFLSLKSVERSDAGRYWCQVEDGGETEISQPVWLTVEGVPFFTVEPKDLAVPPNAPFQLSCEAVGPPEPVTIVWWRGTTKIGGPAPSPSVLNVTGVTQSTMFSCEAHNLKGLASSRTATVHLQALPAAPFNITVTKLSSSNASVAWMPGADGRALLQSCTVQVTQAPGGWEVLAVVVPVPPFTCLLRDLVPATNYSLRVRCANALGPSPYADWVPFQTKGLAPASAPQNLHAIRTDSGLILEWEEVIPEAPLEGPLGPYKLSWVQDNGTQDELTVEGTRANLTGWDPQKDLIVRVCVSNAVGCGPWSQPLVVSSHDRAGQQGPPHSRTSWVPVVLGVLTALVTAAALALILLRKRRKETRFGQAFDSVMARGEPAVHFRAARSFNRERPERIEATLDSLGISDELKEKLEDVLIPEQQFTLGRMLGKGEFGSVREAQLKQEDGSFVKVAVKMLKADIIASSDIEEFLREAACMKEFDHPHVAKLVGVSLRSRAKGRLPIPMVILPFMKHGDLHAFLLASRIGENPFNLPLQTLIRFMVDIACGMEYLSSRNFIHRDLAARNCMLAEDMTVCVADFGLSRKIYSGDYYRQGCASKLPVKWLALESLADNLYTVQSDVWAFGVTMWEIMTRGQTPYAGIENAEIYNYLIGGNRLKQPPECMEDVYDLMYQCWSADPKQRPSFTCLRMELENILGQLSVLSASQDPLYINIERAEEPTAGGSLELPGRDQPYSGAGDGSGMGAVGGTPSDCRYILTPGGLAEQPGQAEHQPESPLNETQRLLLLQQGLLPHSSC
Sequence of MAPK10 (human) (P53779 whole entry, looked up): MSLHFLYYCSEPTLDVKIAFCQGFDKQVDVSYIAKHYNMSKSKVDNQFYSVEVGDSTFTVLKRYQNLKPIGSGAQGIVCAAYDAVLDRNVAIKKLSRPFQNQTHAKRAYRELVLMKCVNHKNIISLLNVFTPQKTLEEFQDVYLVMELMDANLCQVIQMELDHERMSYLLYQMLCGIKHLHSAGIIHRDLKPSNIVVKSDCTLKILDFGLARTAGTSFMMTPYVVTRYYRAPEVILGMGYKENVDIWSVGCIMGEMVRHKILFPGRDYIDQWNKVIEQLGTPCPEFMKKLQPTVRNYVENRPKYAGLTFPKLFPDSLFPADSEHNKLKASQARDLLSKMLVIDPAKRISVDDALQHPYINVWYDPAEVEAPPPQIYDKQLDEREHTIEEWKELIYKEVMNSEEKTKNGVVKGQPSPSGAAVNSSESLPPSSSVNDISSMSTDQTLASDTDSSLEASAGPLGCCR
Sequence of MAPKAPK2 (human) (P49137 whole entry, looked up): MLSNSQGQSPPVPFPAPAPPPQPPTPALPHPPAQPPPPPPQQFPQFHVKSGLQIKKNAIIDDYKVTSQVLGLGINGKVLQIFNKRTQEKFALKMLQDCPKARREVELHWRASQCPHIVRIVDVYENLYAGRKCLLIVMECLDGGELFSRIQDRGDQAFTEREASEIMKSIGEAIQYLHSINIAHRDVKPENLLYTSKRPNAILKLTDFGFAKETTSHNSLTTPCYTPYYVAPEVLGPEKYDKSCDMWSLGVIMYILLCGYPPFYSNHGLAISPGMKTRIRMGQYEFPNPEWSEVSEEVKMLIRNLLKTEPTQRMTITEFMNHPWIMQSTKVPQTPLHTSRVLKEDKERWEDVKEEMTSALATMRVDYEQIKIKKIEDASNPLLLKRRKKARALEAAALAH
Sequence of SGK110 (human) (P0C264 whole entry, looked up): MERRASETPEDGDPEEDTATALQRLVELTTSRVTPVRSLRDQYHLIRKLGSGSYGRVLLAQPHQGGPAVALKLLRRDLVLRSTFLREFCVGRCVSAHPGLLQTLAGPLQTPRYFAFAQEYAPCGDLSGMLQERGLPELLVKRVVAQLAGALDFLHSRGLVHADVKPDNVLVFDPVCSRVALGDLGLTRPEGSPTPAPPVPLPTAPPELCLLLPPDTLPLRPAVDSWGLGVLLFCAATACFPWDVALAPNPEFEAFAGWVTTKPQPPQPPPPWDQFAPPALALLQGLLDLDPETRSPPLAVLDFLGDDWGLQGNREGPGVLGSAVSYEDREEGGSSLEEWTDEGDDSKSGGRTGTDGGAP
Sequence of FGR (human) (P09769 whole entry, looked up): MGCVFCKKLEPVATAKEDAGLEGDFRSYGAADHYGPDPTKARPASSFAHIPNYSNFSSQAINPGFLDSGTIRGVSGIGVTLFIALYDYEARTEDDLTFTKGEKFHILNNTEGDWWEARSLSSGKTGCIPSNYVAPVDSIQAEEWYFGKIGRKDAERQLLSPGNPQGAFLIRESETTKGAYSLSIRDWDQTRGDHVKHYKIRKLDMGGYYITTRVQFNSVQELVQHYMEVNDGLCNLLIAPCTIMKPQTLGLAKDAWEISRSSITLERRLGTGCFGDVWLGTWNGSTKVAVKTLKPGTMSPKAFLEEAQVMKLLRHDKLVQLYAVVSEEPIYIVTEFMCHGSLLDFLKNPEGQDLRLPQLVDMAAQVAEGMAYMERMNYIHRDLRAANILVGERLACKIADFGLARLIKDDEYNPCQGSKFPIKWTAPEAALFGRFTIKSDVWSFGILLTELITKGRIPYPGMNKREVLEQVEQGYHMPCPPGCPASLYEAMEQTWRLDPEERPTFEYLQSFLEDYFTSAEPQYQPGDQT
Sequence of CAMK1 (human) (Q14012 whole entry, looked up): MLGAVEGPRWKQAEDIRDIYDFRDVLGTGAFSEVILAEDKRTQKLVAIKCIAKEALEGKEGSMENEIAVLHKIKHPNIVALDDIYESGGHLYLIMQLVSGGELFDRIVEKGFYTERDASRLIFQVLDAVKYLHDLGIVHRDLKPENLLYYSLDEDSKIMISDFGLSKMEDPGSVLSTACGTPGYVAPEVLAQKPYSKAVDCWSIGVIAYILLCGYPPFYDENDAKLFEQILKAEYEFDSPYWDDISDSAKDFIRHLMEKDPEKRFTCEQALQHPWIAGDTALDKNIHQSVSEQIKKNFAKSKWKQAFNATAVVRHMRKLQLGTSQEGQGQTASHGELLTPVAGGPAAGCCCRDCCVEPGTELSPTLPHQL
Sequence of SRPK1 (human) (Q96SB4 whole entry, looked up): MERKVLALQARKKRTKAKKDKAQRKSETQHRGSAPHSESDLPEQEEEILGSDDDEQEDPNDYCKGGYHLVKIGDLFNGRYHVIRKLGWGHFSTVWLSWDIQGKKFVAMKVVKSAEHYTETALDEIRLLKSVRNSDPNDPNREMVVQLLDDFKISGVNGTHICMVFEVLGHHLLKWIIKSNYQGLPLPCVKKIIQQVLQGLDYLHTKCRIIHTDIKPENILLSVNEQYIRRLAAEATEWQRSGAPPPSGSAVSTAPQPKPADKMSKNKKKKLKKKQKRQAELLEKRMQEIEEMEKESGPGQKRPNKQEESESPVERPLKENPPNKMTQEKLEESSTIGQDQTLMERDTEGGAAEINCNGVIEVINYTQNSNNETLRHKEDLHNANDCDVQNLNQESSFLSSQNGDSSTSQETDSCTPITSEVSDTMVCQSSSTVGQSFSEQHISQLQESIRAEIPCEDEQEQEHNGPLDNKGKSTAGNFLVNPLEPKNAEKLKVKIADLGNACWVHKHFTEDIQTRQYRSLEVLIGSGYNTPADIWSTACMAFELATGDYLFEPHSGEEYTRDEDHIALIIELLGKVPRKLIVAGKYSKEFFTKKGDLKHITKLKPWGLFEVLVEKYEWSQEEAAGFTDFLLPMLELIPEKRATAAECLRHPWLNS

For Nc1cccc(-c2cc(/C=C3\SC(=O)NC3=O)c[nH]c2=O)c1, the kinase still bound, per cent of control [1] was 14%.
Compound O=C1NC(=S)S/C1=C\c1ccc(-c2cncc3ccccc23)o1 has a kinase still bound, per cent of control (CAMK1 (human)) of 27%, a kinase still bound, per cent of control (MAPK10 (human)) of 12% and a kinase still bound, per cent of control (CAMK2B (human)) of 22%. For the same compound, the kinase still bound, per cent of control (FLT1 (human)) was 28% and the kinase still bound, per cent of control (IRAK3 (human)) was 7.9%.
N=C1NC(=O)/C(=C/c2ccc(-c3cncc4ccccc34)o2)S1 was tested, and the kinase still bound, per cent of control (CAMK1 (human)) was 8.4%, the kinase still bound, per cent of control (MAPK10 (human)) was 3% and the kinase still bound, per cent of control (CAMK2B (human)) was 17%. The kinase still bound, per cent of control (SRPK1 (human)) was 15% and the kinase still bound, per cent of control (IRAK3 (human)) was 11%.
CN1C(=O)[C@H]2CCC[C@H]2N(C2CCCC2)c2nc(Nc3ccc(C(N)=O)cc3)ncc21 was tested, and the kinase still bound, per cent of control (TYRO3 (human)) was 31%, the kinase still bound, per cent of control (NEK5 (human)) was 9% and the kinase still bound, per cent of control (MERTK (human)) was 6.8%. The kinase still bound, per cent of control (NLK (human)) was 16% and the kinase still bound, per cent of control (SGK110 (human)) was 30%.
For COc1cc(N2CCN(C)CC2)ccc1Nc1ncc2c(n1)N(C)c1ccccc1N(C)C2=O, the kinase still bound, per cent of control (TYRO3 (human)) was 100%, the kinase still bound, per cent of control (CAMK1 (human)) was 100% and the kinase still bound, per cent of control [2] was 100%. It also gave a kinase still bound, per cent of control (HCK (human)) of 96%, a kinase still bound, per cent of control (ABL2 (human)) of 98% and a kinase still bound, per cent of control (MAPK3 (human)) of 100%. The kinase still bound, per cent of control (MAPK10 (human)) was 85%, the kinase still bound, per cent of control (NEK5 (human)) was 100% and the kinase still bound, per cent of control (MAP3K4 (human)) was 100%. It also gave a kinase still bound, per cent of control (FGR (human)) of 100%, a kinase still bound, per cent of control (MERTK (human)) of 100% and a kinase still bound, per cent of control (PRKACB (human)) of 100%. It also gave a kinase still bound, per cent of control [1] of 100%, a kinase still bound, per cent of control (CAMK2B (human)) of 92% and a kinase still bound, per cent of control (SRPK1 (human)) of 100%. The kinase still bound, per cent of control (ERBB2 (human)) was 6.6%, the kinase still bound, per cent of control (NLK (human)) was 100% and the kinase still bound, per cent of control (FLT1 (human)) was 100%. For the same compound, the kinase still bound, per cent of control (MAPKAPK2 (human)) was 95%, the kinase still bound, per cent of control (PRKCH (human)) was 76% and the kinase still bound, per cent of control (EPHB2 (human)) was 68%. For the same compound, the kinase still bound, per cent of control (ULK1 (human)) was 100%, the kinase still bound, per cent of control (SGK110 (human)) was 52% and the kinase still bound, per cent of control (IRAK3 (human)) was 82%. It also gave a kinase still bound, per cent of control (PTK2B (human)) of 100%, a kinase still bound, per cent of control (LIMK1 (human)) of 95% and a kinase still bound, per cent of control (MAP4K5 (human)) of 91%. It also gave a kinase still bound, per cent of control (ADCK4 (human)) of 82%, a kinase still bound, per cent of control [3] of 85% and a kinase still bound, per cent of control (SYK (human)) of 99%. It also gave a kinase still bound, per cent of control (MST1R (human)) of 100%, a kinase still bound, per cent of control (ULK3 (human)) of 100% and a kinase still bound, per cent of control (PRKCE (human)) of 60%. It also gave a kinase still bound, per cent of control (FES (human)) of 100%, a kinase still bound, per cent of control (CDK2 (human)) of 75% and a kinase still bound, per cent of control (PIK3CA (human)) of 100%. For the same compound, the kinase still bound, per cent of control (CSF1R (human)) was 27%, the kinase still bound, per cent of control (MAP3K10 (human)) was 100% and the kinase still bound, per cent of control (AKT1 (human)) was 91%. It also gave a kinase still bound, per cent of control (STK32B (human)) of 100% and a kinase still bound, per cent of control (NUAK2 (human)) of 100%.
With CS(=O)(=O)Nc1ccc(-c2ncc(/C=C3\SC(=N)NC3=O)s2)cc1 the kinase still bound, per cent of control [2] was 4.6%, the kinase still bound, per cent of control (FGR (human)) was 26% and the kinase still bound, per cent of control (ULK1 (human)) was 33%.
N=C1NC(=O)/C(=C/c2c[nH]c(=O)c(-c3ccc(N4CCNCC4)nc3)c2)S1 gave a kinase still bound, per cent of control (ULK1 (human)) of 33% and a kinase still bound, per cent of control (NUAK2 (human)) of 26%.
Work on COc1cc(N2CCN(C)CC2)ccc1Nc1ncc2c(n1)Nc1ccccc1NC2=O yielded a kinase still bound, per cent of control (TYRO3 (human)) of 100%, a kinase still bound, per cent of control (CAMK1 (human)) of 100% and a kinase still bound, per cent of control [2] of 46%. It also gave a kinase still bound, per cent of control (HCK (human)) of 63%, a kinase still bound, per cent of control (ABL2 (human)) of 79% and a kinase still bound, per cent of control (MAPK3 (human)) of 93%. The kinase still bound, per cent of control (MAPK10 (human)) was 58%, the kinase still bound, per cent of control (NEK5 (human)) was 100% and the kinase still bound, per cent of control (MAP3K4 (human)) was 95%. The kinase still bound, per cent of control (FGR (human)) was 73%, the kinase still bound, per cent of control (MERTK (human)) was 80% and the kinase still bound, per cent of control (PRKACB (human)) was 100%. It also gave a kinase still bound, per cent of control [1] of 69%, a kinase still bound, per cent of control (CAMK2B (human)) of 98% and a kinase still bound, per cent of control (SRPK1 (human)) of 100%. It also gave a kinase still bound, per cent of control (ERBB2 (human)) of 5%, a kinase still bound, per cent of control (NLK (human)) of 100% and a kinase still bound, per cent of control (FLT1 (human)) of 45%. It also gave a kinase still bound, per cent of control (MAPKAPK2 (human)) of 96%, a kinase still bound, per cent of control (PRKCH (human)) of 96% and a kinase still bound, per cent of control (EPHB2 (human)) of 82%. For the same compound, the kinase still bound, per cent of control (ULK1 (human)) was 100%, the kinase still bound, per cent of control (SGK110 (human)) was 97% and the kinase still bound, per cent of control (IRAK3 (human)) was 79%. For the same compound, the kinase still bound, per cent of control (PTK2B (human)) was 99%, the kinase still bound, per cent of control (LIMK1 (human)) was 100% and the kinase still bound, per cent of control (MAP4K5 (human)) was 98%. The kinase still bound, per cent of control (ADCK4 (human)) was 84%, the kinase still bound, per cent of control [3] was 61% and the kinase still bound, per cent of control (SYK (human)) was 91%. The kinase still bound, per cent of control (MST1R (human)) was 100%, the kinase still bound, per cent of control (ULK3 (human)) was 95% and the kinase still bound, per cent of control (PRKCE (human)) was 93%. The kinase still bound, per cent of control (FES (human)) was 100%, the kinase still bound, per cent of control (CDK2 (human)) was 100% and the kinase still bound, per cent of control (PIK3CA (human)) was 100%. It also gave a kinase still bound, per cent of control (CSF1R (human)) of 75%, a kinase still bound, per cent of control (MAP3K10 (human)) of 100% and a kinase still bound, per cent of control (AKT1 (human)) of 100%. For the same compound, the kinase still bound, per cent of control (STK32B (human)) was 93% and the kinase still bound, per cent of control (NUAK2 (human)) was 71%.
For CSC1=NC(=O)/C(=C/c2c[nH]c(=O)c(-c3ccc(NS(C)(=O)=O)cc3)c2)S1, the kinase still bound, per cent of control (ULK1 (human)) was 23% and the kinase still bound, per cent of control (NUAK2 (human)) was 32%.
N=C1NC(=O)/C(=C/c2ccc(-c3ccc(F)cc3O)o2)S1 was tested, and the kinase still bound, per cent of control (SRPK1 (human)) was 25% and the kinase still bound, per cent of control (CDK2 (human)) was 6.6%.
N=C1NC(=O)/C(=C/c2ccc(-c3ccccc3O)o2)S1 was tested, and the kinase still bound, per cent of control (CDK2 (human)) was 20%.
In the case of CS(=O)(=O)Nc1ccc(-c2cncc(/C=C3\SC(=N)NC3=O)c2)cc1, the kinase still bound, per cent of control (SRPK1 (human)) was 11%, the kinase still bound, per cent of control (NLK (human)) was 24% and the kinase still bound, per cent of control (MAP4K5 (human)) was 12%.
N=C1NC(=O)/C(=C/c2ccc(-c3ccc(C(N)=O)cc3O)o2)S1 showed a kinase still bound, per cent of control (MAPKAPK2 (human)) of 25%, a kinase still bound, per cent of control (CDK2 (human)) of 19% and a kinase still bound, per cent of control (PIK3CA (human)) of 9.2%.
